Where two headings read alike, the source gives them in different places.
Legend:
human OX2 receptor = target: T1, human OX2 receptor (Homo sapiens, UniProt O43614); test: Measurement of orexin type 2 receptor agonist activity (Experimental Example 3; calcium 5 dye, FLIPR Tetra); type: cell-based; conditions: compound at 1 μM; CHO cells expressing human OX2 receptor; DMSO = 0%, 10 nM orexin A (human) = 100%
T1 construct: expressed in transfected cells
T1 sequence (O43614 1-444): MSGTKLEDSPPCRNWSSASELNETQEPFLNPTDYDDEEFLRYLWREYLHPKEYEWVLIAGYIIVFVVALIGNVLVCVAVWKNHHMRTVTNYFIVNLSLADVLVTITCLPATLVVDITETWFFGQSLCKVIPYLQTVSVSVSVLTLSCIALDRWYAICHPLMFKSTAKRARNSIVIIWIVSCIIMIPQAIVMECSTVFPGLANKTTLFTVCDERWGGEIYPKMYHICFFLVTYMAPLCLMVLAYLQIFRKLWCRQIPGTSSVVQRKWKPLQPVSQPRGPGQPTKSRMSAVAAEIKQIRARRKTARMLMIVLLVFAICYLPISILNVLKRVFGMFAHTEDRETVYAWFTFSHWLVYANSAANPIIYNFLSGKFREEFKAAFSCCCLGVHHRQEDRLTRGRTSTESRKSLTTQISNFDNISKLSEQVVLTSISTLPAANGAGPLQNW
Protocol: In order to obtain cell clones that stably express human orexin type 2 receptor, human orexin type 2 (residues 1-444, NCBI Reference Sequence: AK314279) was constructed in a pcDNA3.1 (+) vector (Invitrogen) to express in mammalian cells. This plasmid DNA was transfected into CHO-K1 cells by electroporation, and stable clones were obtained by limiting dilution using resistance to G418 as a selection marker.
CHO cells in which human OX2 receptor was forcibly expressed were seeded at 5,000 cells/well into a 384-well black transparent bottom plate (Costar) in 25 ul complete media, and were then incubated at 37° C., 5% CO2 for 1 day. The next day, 25 ul of 2× calcium 5 dye (Molecular Devices) in assay buffer (HBSS (Thermo Fisher Scientific), 20 mM HEPES (Thermo Fisher Scientific), 2.5 mM probenecid). After incubation in a 5% CO2 incubator at 37° C. for 40 minutes, it was incubated at room temperature for another 20 minutes. Add 5 μL/well of the test compound diluted with assay buffer B (HBSS, 20 mM HEPES), using FLIPR Tetra (Molecular Devices) to measure the fluorescence value every 1 second for 1 minute, and then every 2 seconds for 1 minute. It was measured for 1 minute and 40 seconds. The amount of fluorescence value when DMSO is added instead of the test compound is defined as 0%, and the amount of fluorescence value when orexin A (human) (Peptide Institute) with a final concentration of 10 nM is added is defined as 100%. The activity (%) of the test compound was calculated.

**Q.** Which results are given for `CCS(=O)(=O)N[C@@H]1[C@@H]2Cc3cccc(c3F)Oc3nc(ccc3C)NCC(=O)N2CC1(F)F` [Example 99, N-[(15aS,16R)-17,17,20-trifluoro-7-methyl-1-oxo-2,3,15a,16,17,18-hexahydro-1H,15H-4,8-(azeno)-14,10-(metheno)pyrrolo[1,2-j][1,7,10]oxadiazacyclo-heptadecin-16-yl]ethanesulfonamide]?
**A.** ring closure, yield of all isomers (from CCS(=O)(=O)N[C@@H]1[C@H](Cc2cccc(Oc3nc(NCC(=O)O)ccc3C)c2F)NCC1(F)F, amide bond, HATU / DIPEA, DMF, 1.74 mM, 25.0 °C, 12.0 h): 13.3%; OX2R agonist activity (1 μM, %) (human OX2 receptor): 97%

**Q.** With `CCS(=O)(=O)N[C@@H]1[C@@H]2Cc3cccc(c3F)Cc3nc(ccc3C)O[C@@H](C)C(=O)N2CC1(F)F` [Example 111, N-[(2S,15aS,16R)-17,17,20-trifluoro-2,7-dimethyl-1-oxo-1,2,15a,16,17,18-hexahydro-9H,15H-4,8-(azeno)-10,14-(metheno)pyrrolo[1,2-d][1,4]oxazacycloheptadecin-16-yl]ethanesulfonamide] as the compound, how does the ring closure, yield of all isomers (from CCS(=O)(=O)N[C@@H]1[C@H](Cc2cccc(Cc3nc(O[C@@H](C)C(=O)O)ccc3C)c2F)NCC1(F)F, amide bond, HATU/DIPEA, DMF, 2.83 mM, 25.0 °C, 16.0 h) read?
**A.** Its ring closure, yield of all isomers is 11.8%.

**Q.** And the “OX2R agonist activity (1 μM, %)” value (human OX2 receptor)?
**A.** Its value is 103%.

**Q.** Which results are given for `CCS(=O)(=O)N[C@@H]1[C@@H]2Cc3cccc(c3F)C(F)(F)c3nc(ccc3C)CNC(=O)N2CC1(F)F` [Example 100, N-[(15aS,16R)-9,9,17,17,20-pentafluoro-7-methyl-1-oxo-2,3,15a,16,17,18-hexahydro-1H,9H,15H-4,8-(azeno)-14,10-(metheno)pyrrolo[1,2-c][1,3]diazacycloheptadecin-16-yl]ethanesulfonamide]?
**A.** ring closure, yield of all isomers (from CCS(=O)(=O)N[C@@H]1[C@H](Cc2cccc(C(F)(F)c3nc(CN)ccc3C)c2F)NCC1(F)F, other bond, CDI/DIPEA, THF, 11.0 mM, 45.0 °C, 16.0 h): 30.8%; OX2R agonist activity (1 μM, %) (human OX2 receptor): 84%

Reference: patent publication US20240309016A1, “MACROCYCLIC HETEROCYCLE COMPOUNDS AND USE THEREOF” (TAKEDA PHARMACEUTICAL COMPANY LIMITED, priority 2023, published 2024)
